“Also recorded” adds a separate entry of the source. Where a name gives a salt, the structure may show the parent alone.
Experiments:
Assay type in all cases: in vivo
[1] = system: human melanoma cell line SEKI; experiment: Antitumor effect in human melanoma cell line SEKI transplantation model, nude mice
Description: A human melanoma cell line SEKI (JCRB Cell Bank) was cultured by using RPMI1640 medium (Sigma-Aldrich Co. LLC) containing 10% FBS in a 5% CO2 incubator under conditions of 37° C. When the cells became an approximately 80% confluent state, the cells were recovered by using trypsin-EDTA. A suspension was prepared by adding Hank's balanced salt solution containing 50% Matrigel to the cells so as to be 5.0×10^7 cells/mL. 0.1 mL of the obtained cell suspension was subcutaneously transplanted to the sides of the bodies of six nude mice (CAnN.Cg-Foxn1^nu/CrlCrlj, Charles River Laboratories Japan, Inc.) each of a control group, an E7386 12.5 or 25 mg/kg alone administration group, a lenvatinib mesylate 10 mg/kg alone administration group, and a combined administration group of 12.5 or 25 mg/kg E7386 and 10 mg/kg lenvatinib mesylate. From 13 days after the transplantation, E7386 (12.5 or 25 mg/kg, b.d.s., 14 days, oral administration) and lenvatinib mesylate (10 mg/kg, q.d., 14 days, oral administration) were administered alone or in combination to the alone administration group or the combined administration group. For the administration, E7386 was dissolved in 0.1 mol/L hydrochloric acid, and lenvatinib mesylate was dissolved in 3 mmol/L hydrochloric acid. 0.1 mol/L hydrochloric acid (b.d.s., 14 days) was administered to the control group.
When the start day of administration was defined as day 1, the major axis and minor axis of tumor developed in each mouse were then measured at day 4, day 8, day 11, and day 15 by using Digimatic Caliper (Mitutoyo Corp.).
(§1) The tumor volume and the relative tumor volume (RTV) were calculated according to the following expressions. Tumor volume (mm^3)=Tumor major axis (mm)×Tumor minor axis^2 (mm^2)/2 Relative tumor volume (RTV)=Tumor volume at the measurement day/Tumor volume at the start day of administration

[2] = system: Human renal cell carcinoma line A-498 cells; experiment: Antitumor effect in human renal cell carcinoma line A-498 subcutaneous transplantation model, nude mice
Description: Human renal cell carcinoma line A-498 cells (ATCC) were cultured by using RPMI1640 medium (Wako Pure Chemical Industries, Ltd.) containing 10% FBS in a 5% COz incubator under conditions of 37° C. When the cells became an approximately 100% confluent state, the cells were recovered by using trypsin-EDTA. A suspension was prepared by adding RPMI1640 medium containing 50% Matrigel to the cells so as to be 5.0×10^7 cells/mL. 0.1 mL of the obtained cell suspension was subcutaneously transplanted to the sides of the bodies of six nude mice (CAnN.Cg-Foxn1^nu/CrlCrlj, Charles River Laboratories Japan, Inc.) each of a control group, an E7386 50 mg/kg alone administration group, a lenvatinib mesylate 10 mg/kg alone administration group, and a combined administration group of 50 mg/kg E7386 and 10 mg/kg lenvatinib mesylate. From 27 days alter the transplantation, E7386 (50 mg/kg, q.d., 14 days, oral administration) and lenvatinib mesylate (10 mg/kg, q.d, 14 days, oral administration) were administered alone or in combination to the alone administration group or the combined administration group. For the administration, E7386 was dissolved in 0.1 mol/L hydrochloric acid, and lenvatinib mesylate was dissolved in 3 mmol/L hydrochloric acid. Any drug was not administered to the control group.
When the start day of administration was defined as day 1, the major axis and minor axis of tumor developed in each mouse were then measured at day 5, day 8, day 12, and day 15 by using Digimatic Caliper (Mitutoyo Corp.).
as §1

[3] = system: Human colorectal cancer line Colo-205 cells; experiment: Antitumor effect in human colorectal cancer line Colo-205 transplantation model, nude mice
Description: Human colorectal cancer line Colo-205 cells (ATCC) were cultured by using RPMI1640 medium (Wako Pure Chemical Industries, Ltd.) containing 10% FBS in a 5% CO2 incubator under conditions of 37° C. When the cells became an approximately 80% confluent state, the cells were recovered by using trypsin-EDTA. A suspension was prepared by adding Hank's balanced salt solution to the cells so as to be 5.0×10^7 cells/mL. 0.1 mL of the obtained cell suspension was subcutaneously transplanted to the sides of the bodies of five nude mice (CAnN.Cg-Foxn1^nu/CrlCrlj, Charles River Laboratories Japan, Inc.) each of a control group, an E7386 50 mg/kg alone administration group, a lenvatinib mesylate 10 mg/kg alone administration group, and a combined administration group of 50 mg/kg E7386 and 10 mg/kg lenvatinib mesylate. From 8 days after the transplantation, E7386 (50 mg/kg, q.d., 11 days, oral administration) and lenvatinib mesylate (10 mg/kg, q.d., 11 days, oral administration) were administered alone or in combination to the alone administration group or the combined administration group. For the administration, E73 86 was dissolved in 0.1 mol/L hydrochloric acid, and lenvatinib mesylate was dissolved in 3 mmol/L hydrochloric acid. Any drug was not administered to the control group.
When the start day of administration was defined as day 1, the major axis and minor axis of tumor developed in each mouse were then measured at day 4, day 8, and day 12 by using Digimatic Caliper (Mitutoyo Corp.).
as §1

[4] = system: Human hepatocellular carcinoma line HepG2 cells; experiment: Tumor vessel suppressive effect (CD31/α-SMA co-staining, MVD and PCI) in human hepatocellular carcinoma HepG2 subcutaneous transplantation model, nude mice; conditions: FIG. 22; lenvatinib mesylate 10 mg/kg q.d. alone, 14 days oral; vs control group
Description: For the administration, E7386 was dissolved in 0.1 mol/L hydrochloric acid, and lenvatinib mesylate was dissolved in 3 mmol/L hydrochloric acid. Any drug was not administered to the control group.

[5] = Day 8, E7386 50 mg/kg q.d. oral alone
[6] = Day 12, E7386 50 mg/kg q.d. oral alone
[7] = Day 4, lenvatinib mesylate 10 mg/kg q.d. oral alone
[8] = Day 8, lenvatinib mesylate 10 mg/kg q.d. oral alone
[9] = Day 15, lenvatinib mesylate 10 mg/kg q.d. oral alone
[10] = Day 12, lenvatinib mesylate 10 mg/kg q.d. oral alone

C=CCN1CC(=O)N2[C@@H](Cc3ccc(O)cc3F)C(=O)N(Cc3cccc(N4CC(N5CCN(CC)CC5)C4)n3)C[C@@H]2N1C(=O)NCc1ccccc1 [E7386, (6S,9aS)—N-Benzyl-8-({6-[3-(4-ethylpiperazin-1-yl)azetidin-1-yl]pyridin-2-yl}methyl)-6-(2-fluoro-4-hydroxybenzyl)-4,7-dioxo-2-(prop-2-en-1-yl)hexahydro-2H-pyrazino[2,1-c][1,2,4]triazine-1(6H)-carboxamide]
Relative tumor volume (RTV), mean±SD ([1]; Day 4, E7386 12.5 mg/kg b.d.s. oral alone): 1.65 ± 0.22
Relative tumor volume (RTV), mean±SD ([1]; Day 4, E7386 25 mg/kg b.d.s. oral alone): 1.56 ± 0.21
Relative tumor volume (RTV), mean±SD ([1]; Day 8, E7386 12.5 mg/kg b.d.s. oral alone): 3.02 ± 0.31
Relative tumor volume (RTV), mean±SD ([1]; Day 8, E7386 25 mg/kg b.d.s. oral alone): 2.94 ± 0.22
Relative tumor volume (RTV), mean±SD ([1]; Day 11, E7386 12.5 mg/kg b.d.s. oral alone): 4.19 ± 0.80
Relative tumor volume (RTV), mean±SD ([1]; Day 11, E7386 25 mg/kg b.d.s. oral alone): 4.35 ± 0.36
Relative tumor volume (RTV), mean±SD ([1]; Day 15, E7386 12.5 mg/kg b.d.s. oral alone): 5.53 ± 1.21
Relative tumor volume (RTV), mean±SD ([1]; Day 15, E7386 25 mg/kg b.d.s. oral alone): 5.90 ± 1.34
Relative tumor volume (RTV), mean±SD ([2]; Day 5, E7386 50 mg/kg q.d. oral alone): 1.33 ± 0.24
Relative tumor volume (RTV), mean±SD [2, 5]: 1.70 ± 0.26
Relative tumor volume (RTV), mean±SD [2, 6]: 2.04 ± 0.29
Relative tumor volume (RTV), mean±SD ([2]; Day 15, E7386 50 mg/kg q.d. oral alone): 2.29 ± 0.33
Relative tumor volume (RTV), mean±SD ([3]; Day 4, E7386 50 mg/kg q.d. oral alone): 1.98 ± 0.24
Relative tumor volume (RTV), mean±SD [3, 5]: 3.87 ± 0.74
Relative tumor volume (RTV), mean±SD [3, 6]: 4.94 ± 1.41

COc1cc2nccc(Oc3ccc(NC(=O)NC4CC4)c(Cl)c3)c2cc1C(N)=O [Lenvatinib mesylate, 4-(3-chloro-4-(cyclopropylaminocarbonyl)aminophenoxy)-7-methoxy-6-quinolinecarboxamide, reference compound]
Relative tumor volume (RTV), mean±SD [1, 7]: 1.60 ± 0.22
Relative tumor volume (RTV), mean±SD [1, 8]: 2.66 ± 0.46
Relative tumor volume (RTV), mean±SD ([1]; Day 11, lenvatinib mesylate 10 mg/kg q.d. oral alone): 3.81 ± 0.80
Relative tumor volume (RTV), mean±SD [1, 9]: 4.67 ± 1.19
PCI (pericyte coverage index) (in words) [4]: markedly increased; also recorded: statistically significantly increased pericyte coverage as compared with the control group
Relative tumor volume (RTV), mean±SD ([2]; Day 5, lenvatinib mesylate 10 mg/kg q.d. oral alone): 1.08 ± 0.18
Relative tumor volume (RTV), mean±SD [2, 8]: 1.35 ± 0.25
Relative tumor volume (RTV), mean±SD [2, 10]: 1.21 ± 0.18
Relative tumor volume (RTV), mean±SD [2, 9]: 1.20 ± 0.21
Relative tumor volume (RTV), mean±SD [3, 7]: 1.41 ± 0.30
Relative tumor volume (RTV), mean±SD [3, 8]: 1.75 ± 0.13
Relative tumor volume (RTV), mean±SD [3, 10]: 1.94 ± 0.31

— patent publication US12303505B2, “Tumor-treating pharmaceutical composition” (Eisai R&D Management Co., Ltd., priority 2017, dated 2025)
